Results: US20260325473A1, “N-Beta-Hydroxybutyryl-Amino Acids and Related Compositions and Methods” (The Board of Trustees of the Leland Stanford Junior …, priority 2023, published 2026)

Tests used:
[1] = Metabolite quantitation in mouse plasma (QQQ-LC/MS); format: in vivo
Method: Preparation of plasma samples for LC-MS analysis. Plasma was collected from mice via a submandibular bleed into lithium heparin tubes (BD, 365985) and immediately transferred onto ice. The blood was centrifuged at 4° C. at 5000 rpm for 5 min and the top layer of plasma was aliquoted and frozen at −80 °C. To extract polar metabolites from plasma for LC-MS analysis, 150 μl of a 2:1 mixture of acetonitrile/methanol was added to 50 μl of plasma. The mixture was centrifuged at 4° C. for 10 min at 15,000 rpm and the supernatant was transferred to a LC-MS vial.
Targeted metabolomics. Targeted measurements were performed using an Agilent 6470 triple quadrupole LC-MS instrument. MS analysis was performed using AJS in negative mode. The AJS source parameters were set as follows: the dry gas temperature was set at 250° C. with a gas flow of 12 l/min and the nebulizer pressure at 25 psi; the sheath gas temperature was set to 300° C. with the sheath gas flow set at 12 l/min; and the capillary voltage was set to 3,500 V. Separation of polar metabolites was performed as described above in the ‘Untargeted measurements of metabolites by LC-MS’ section. Multiple reaction monitoring was performed for the indicated metabolites with the listed dwell times, fragmentor voltage, collision energies, cell accelerator voltages and polarities. Quantification of the endogenous metabolite concentrations were performed by generating a standard curve with known concentrations of each metabolite. Metabolite standards were analyzed alongside the plasma samples using the same targeted triple quadrupole LC/MS method. A calibration standard curve generated from the metabolite standard concentrations and total peak areas were used to calculate the concentrations of each endogenous metabolite. The dilution of the plasma during the sample preparation was also taken into account for the quantification.

[2] = tested on: brain lysate proteins; test: Competition of X-Phe photoprobe-labeled brain proteins, quantitative shotgun proteomics; format: binding, mouse
Method: Shotgun proteomics of X-Phe photoprobe-labeled proteins. Brains from wild type C57BL/6J mice were harvested and homogenized using a bead blaster in PBS. Brain homogenate was centrifuged (15,000 rpm, 10 min) to yield the cytosolic supernatant and membrane pellet fractions. The cytosolic fraction was transferred to a new eppie and centrifuged again (15,000 rpm, 10 min). This process was repeated 4 times until no pellet was present after centrifugation. The membrane pellet was washed with 1 ml PBS and centrifuged (15,000 rpm, 10 min); this step was also repeated 4 times to remove any cytosolic protein contamination. After the centrifugation steps, the membrane pellet was re-suspended in PBS and sonicated. For competition experiments, brain lysate was normalized to 2 mg/ml in PBS and incubated with competitors at the indicated concentrations at room temperature for 30 minutes. 100 μM of the photoprobe was added and the reactions incubated on ice for 10 minutes protected from light. Reactions were then put under UV for 1 min on a UV Stratalinker. A biotin click reaction was performed by adding the following reagents to the indicated final concentrations: […], 1 mM CuSO4, 1 mM TCEP (freshly prepared), 30 μM Biotin-N3. Reactions were allowed to proceed for 1 hour at room temp, protected from light, and while rotating. The following prep was adapted from Niphakis et al. 2015. To each reaction, the following solvents were added in order, 4 ml cold methanol, 1 ml cold chloroform, 2 ml cold PBS. The mixture was vortexed well and centrifuged (4,600×g, 15 min, 4° C.). After centrifugation the organic and aqueous layers were removed without disruption of the protein disc. The protein disc was washed with a cold 1:1 mixture of methanol:chloroform 3 times. After the final wash, the protein disc was re-suspended in a 4:1 mixture of methanol:chloroform and sonicated. The insoluble protein was pelleted by centrifugation (4,600×g, 15 min, 4 C) and the pellet re-suspended in freshly prepared 500 μl of 6 M urea in PBS. 20 μl of 10% (w/v) SDS was added to the solution. The solution was then warmed in a 37 C water bath for 10 min to help dissolve poorly soluble protein. A streptavidin pulldown was the performed on the protein mixture. 250 μl of streptavidin beads were washed 3 times with 1 ml PBS. Protein samples were diluted with 5.5 ml of 0.25% SDS in PBS and incubated with streptavidin beads for 1.5 hr at room temperature. Following incubation, beads were washed 5 times each with 0.25% SDS in PBS, then PBS, then lastly with ultra-pure water Steptavidin beads were suspended in 150 μL resuspension buffer (1 M urea, 50 mM Tris-HCl, pH 8). Proteins were digested with 3 μg of trypsin for 4 hours. Digested peptides were reduced with 5 mM TCEP for 10 minutes. Cys residues were alkylated using 15 mM iodoacetimide (IAA) for 20 minutes. Finally, excess IAA was quenched with 10 mM DTT. Acidified digested peptides were desalted over C18 StageTips [PMID: 12585499]. Peptides were then eluted with 80% acetonitrile, 0.1% TFA and dried in a speedvac. Dried samples were reconstituted with 200 mM EPPS buffer, pH 8.0, and labelled with TMT reagents (Thermo Fisher Scientific). Following incubation at room temperature for 2 h, the reactions were quenched with hydroxylamine to a final concentration of 0.5% (v/v). […]

[3] = molecular target: T1, CNDP2 (Mus musculus, UniProt Q9D1A2); settings: Li et al. 2022; cited from earlier work
T1 sequence (Q9D1A2 1-475): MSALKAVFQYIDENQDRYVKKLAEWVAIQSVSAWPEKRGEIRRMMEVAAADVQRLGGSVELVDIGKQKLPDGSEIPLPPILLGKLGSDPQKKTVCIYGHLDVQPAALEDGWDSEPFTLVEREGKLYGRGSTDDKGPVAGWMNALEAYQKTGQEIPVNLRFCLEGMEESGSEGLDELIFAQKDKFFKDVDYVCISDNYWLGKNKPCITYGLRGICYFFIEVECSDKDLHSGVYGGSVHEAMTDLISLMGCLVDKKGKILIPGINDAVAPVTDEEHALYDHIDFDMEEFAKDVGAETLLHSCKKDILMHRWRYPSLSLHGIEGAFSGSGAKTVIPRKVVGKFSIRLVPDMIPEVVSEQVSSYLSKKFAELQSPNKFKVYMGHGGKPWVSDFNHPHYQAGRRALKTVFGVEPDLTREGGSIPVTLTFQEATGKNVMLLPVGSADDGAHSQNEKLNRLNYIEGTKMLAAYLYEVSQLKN

[4] = tested on: food intake; settings: Li et al. 2022; cited from earlier work
[5] = molecular target: T1, CNDP2; test: In vitro synthase (condensation) activity, lysates of CNDP2-transfected HEK293T cells; format: biochemical; design: expressed in transfected cells; host or cells: HEK293T (lysate); settings: role: product; lactate and BHB at varying concentrations, phenylalanine 20 mM
Method: In vitro enzyme activity assays. HEK293T cells were transfected with GFP, CNDP2 or CNDP2-E166A using PolyFect (Qiagen 301105) according to the manufacturer's instructions. The medium was changed one day post-transfection. After an additional 24 h, the cells were harvested in PBS, lysed by sonication and centrifuged (10 min at 15,000 rpm) to remove debris. Supernatant was collected and protein concentrations were adjusted. The in vitro reactions were conducted in Eppendorf tubes with 100 μL of 1 mg/mL protein and 20 mM substrates for keto amino acid synthase activity assays and. Reactions were incubated for 1 h at 37° C. and 20 μl of 1 M HCl were added to acidify the medium and to protonate keto amino acids. Reactions were vortexed and 400 μL of ethyl acetate were added to each reaction. Reactions were vortexed for 30 s to extract keto amino acids into the organic layer and centrifuged at 4° C. for 10 min at 15,000 r.p.m. A total of 300 μl from the top layer was transferred to a new Eppendorf tube and dried down under a stream of nitrogen. The residue was re-suspended in 150 μl of an 2:1:1 mixture of acetonitrile: methanol: water. The mixture was centrifuged at 4° C. for 10 min at 15,000 r.p.m. and the supernatant was transferred to a LC-MS vial.

[6] = molecular target: T1, CNDP2; test: as above; format: biochemical; design: expressed in transfected cells; host or cells: HEK293T (lysate); settings: role: substrate; organic acids 1 mM with 10 mM phenylalanine

With `C[C@H](O)C(=O)N[C@@H](Cc1ccccc1)C(=O)O` [Lac-Phe, N-lactoyl phenylalanine] the “elevation after acute treadmill running” value ([1]; 15 min running) was 8 fold, the “effect of ketone ester administration on level” value ([1]; 30 min after ketone drink, 3 mg/g) was “without affecting Lac-Phe levels” and the “effect of strenuous and prolonged exercise on level” value ([1]; 30 min strenuous running) was “robust co-induction”. For the same compound, the “competition of X-Phe photoprobe-labeled proteins” value ([2]; 100 μM photoprobe, 50-fold excess competitor) was over 80%, the “number of the 32 Keto-Phe targets also >80% competed by Lac-Phe” value ([2]; 50-fold excess Lac-Phe) was 30 out of 32 and the “share of the 32 Keto-Phe targets also >80% competed by Lac-Phe” value ([2]; 50-fold excess Lac-Phe) was 94%. For the same compound, the “Lac-Phe levels upon genetic ablation of CNDP2” value [3] was “dramatically reduces Lac-Phe levels”, the food intake [4] was “suppresses food intake” and the “products formed from combined lactate and BHB” value [5] was “simultaneous production”.

In the case of `CC(=O)O` [acetate], the “CNDP2 activity towards organic acid substrates” value [6] was “unable to accept”.
